In US8247610B2, “Amine linked modulators of γ-secretase” (Janssen Pharmaceutica N.V., priority 2007, dated 2012):

The compounds below were run against T1, γ-secretase (Homo sapiens, UniProt P49768) (assay: Screening for γ-secretase-modulating activity in SKNBE2 cells carrying the APP 695 wild type). Details: 0.3 μM; SKNBE2 cells carrying APP 695 wild type.
T1 construct: endogenous in cells; host or cells: SKNBE2 cells carrying APP 695 wild type
Type: cell-based
Method: Screening of the Compounds of the Invention for γ-Secretase-Modulating Activity
Screening was carried out using SKNBE2 cells carrying the APP 695—wild type, grown in DMEM/NUT-mix F12 (HAM) provided by Gibco (cat no. 31330-38) containing 5% Serum/Fe supplemented with 1% non-essential amino acids.
Cells were grown to near confluency.
The screening was performed using the assay as described in Citron et al (1997) Nature Medicine 3: 67.

| inhibition at 0.3 µM [%] | Structure (SMILES) |
| --- | --- |
| 11 | CC(C)CCN(Cc1cc(CC(=O)O)cc(-c2ccc(C(F)(F)F)cc2)c1)Cc1ccc(Cl)c(F)c1 [Compound 57, (5-{[(4-Chloro-3-fluoro-benzyl)-(3-methyl-butyl)-amino]-methyl}-4′-trifluoromethyl-biphenyl-3-yl)-acetic acid] |
| 16 | CCN(c1cc(-c2ccc(C(F)(F)F)cc2)cc(C(CC(C)C)C(=O)O)c1)c1cccc(C(F)(F)F)c1 (centres unmarked) [Example 13, 2-{5-[Ethyl-(3-trifluoromethyl-phenyl)-amino]-4′-trifluoromethyl-biphenyl-3-yl}-4-methyl-pentanoic acid] |
| 14 | CCN(c1ccc(Cl)cc1)c1cc(-c2ccc(C(F)(F)F)cc2)cc(C(CC(C)C)C(=O)O)c1 (centres unmarked) [Example 14, 2-{5-[(4-Chloro-phenyl)-ethyl-amino]-4′-trifluoromethyl-biphenyl-3-yl}-4-methyl-pentanoic acid] |
| 13 | CC(C)CC(C(=O)O)c1cc(-c2ccc(C(F)(F)F)cc2)cc(N(C)c2cc[n+](C)cc2)c1 (centres unmarked) [Example 16, 4-{[5-(1-Carboxy-3-methyl-butyl)-4′-trifluoromethyl-biphenyl-3-yl]-methyl-amino}-1-methyl-pyridinium] |

More lines, now with the values behind:

| Structure (SMILES) | inhibition at 0.3 µM [%] |
| --- | --- |
| CC(C)CC(C(=O)O)c1cc(-c2ccc(C(F)(F)F)cc2)cc(N(C)c2ccc(F)cc2C(F)(F)F)c1 (centres unmarked) [Example 11, 2-{5-[(4-Fluoro-2-trifluoromethyl-phenyl)-methyl-amino]-4′-trifluoromethyl-biphenyl-3-yl}-4-methyl-pentanoic acid] | 23 |
| CC(C)CC(C(=O)O)c1cc(-c2ccc(C(F)(F)F)cc2)cc(N(C)c2ccc(C(F)(F)F)cc2)c1 (centres unmarked) [Example 19, 4-Methyl-2-{5-[methyl-(4-trifluoromethyl-phenyl)-amino]-4′-trifluoromethyl-biphenyl-3-yl}-pentanoic acid] | 22 |

Same assay, conditions: SKNBE2 cells carrying APP 695 wild type

| EC50 [nM] | Structure (SMILES) |
| --- | --- |
| 240 | CC(C)CCN(Cc1cc(F)cc(F)c1)Cc1cc(-c2ccc(C(F)(F)F)cc2)cc(C(CC(C)C)C(=O)O)c1 (centres unmarked) [Compound 59, 2-(5-{[(3,5-Difluoro-benzyl)-(3-methyl-butyl)-amino]-methyl}-4′-trifluoromethyl-biphenyl-3-yl)-4-methyl-pentanoic acid] |
| 390 | CC(C)CCN(Cc1cc(-c2ccc(C(F)(F)F)cc2)cc(C(CC(C)C)C(=O)O)c1)Cc1cccc(C(F)(F)F)c1 (centres unmarked) [Compound 61, 4-Methyl-2-(5-{[(3-methyl-butyl)-(3-trifluoromethyl-benzyl)-amino]-methyl}-4′-trifluoromethyl-biphenyl-3-yl)-pentanoic acid] |
| 620 | CC(C)CC(C(=O)O)c1cc(-c2ccc(C(F)(F)F)cc2)cc(N(C)c2ccc(Cl)cc2)c1 (centres unmarked) [Example 1, 2-{5-[(4-Chloro-phenyl)-methyl-amino]-4′-trifluoromethyl-biphenyl-3-yl}-4-methyl-pentanoic acid] |
| 220 | CC(C)CC(C(=O)O)c1cc(-c2ccc(C(F)(F)F)cc2)cc(N(C)c2cccc(C(F)(F)F)c2)c1 (centres unmarked) [Example 2, 4-Methyl-2-{5-[methyl-(3-trifluoromethyl-phenyl)-amino]-4′-trifluoromethyl-biphenyl-3-yl}-pentanoic acid] |
| 330 | CC(C)CC(C(=O)O)c1cc(-c2ccc(C(F)(F)F)cc2)cc(N(C)c2ccc(Cl)c(C(F)(F)F)c2)c1 (centres unmarked) [Example 9, 2-{5-[(4-Chloro-3-trifluoromethyl-phenyl)-methyl-amino]-4′-trifluoromethyl-biphenyl-3-yl}-4-methyl-pentanoic acid] |
| 160 | CC(C)CC(C(=O)O)c1cc(-c2ccc(C(F)(F)F)cc2)cc(N(C)c2cc(C(F)(F)F)ccc2C(F)(F)F)c1 (centres unmarked) [Example 12, 2-{5-[(2,5-Bis-trifluoromethyl-phenyl)-methyl-amino]-4′-trifluoromethyl-biphenyl-3-yl}-4-methyl-pentanoic acid] |
| 850 | CC(C)CC(C(=O)O)c1cc(-c2ccc(C(F)(F)F)cc2)cc(N(C)c2ccc(C(F)(F)F)nc2)c1 (centres unmarked) [Example 15, 4-Methyl-2-{5-[methyl-(6-trifluoromethyl-pyridin-3-yl)-amino]-4′-trifluoromethyl-biphenyl-3-yl}-pentanoic acid] |

Second part, the compound before the results:

| Structure (SMILES) | EC50 [nM] |
| --- | --- |
| CC(C)CCN(Cc1ccc(C(F)(F)F)cc1)Cc1cc(CC(=O)O)cc(-c2ccc(C(F)(F)F)cc2)c1 [Compound 58, (5-{[(3-Methyl-butyl)-(4-trifluoromethyl-benzyl)-amino]-methyl}-4′-trifluoromethyl-biphenyl-3-yl)-acetic acid] | 590 |
| CC(C)CCN(Cc1cc(-c2ccc(C(F)(F)F)cc2)cc(C(CC(C)C)C(=O)O)c1)Cc1ccc(F)cc1C(F)(F)F (centres unmarked) [Compound 60, 2-(5-{[(4-Fluoro-2-trifluoromethyl-benzyl)-(3-methyl-butyl)-amino]-methyl}-4′-trifluoromethyl-biphenyl-3-yl)-4-methyl-pentanoic acid] | 300 |
| CC(C)CCN(Cc1ccc(F)cc1)Cc1cc(-c2ccc(C(F)(F)F)cc2)cc(C(CC(C)C)C(=O)O)c1 (centres unmarked) [Compound 62, 2-(5-{[(4-Fluoro-benzyl)-(3-methyl-butyl)-amino]-methyl}-4′-trifluoromethyl-biphenyl-3-yl)-4-methyl-pentanoic acid] | 130 |
| CC(C)CCN(Cc1cc(-c2ccc(C(F)(F)F)cc2)cc([C@@H](CC(C)C)C(=O)O)c1)c1ccc(C(F)(F)F)cc1 [Compound 63, 4-Methyl-2-(5-{[(3-methyl-butyl)-(4-trifluoromethyl-phenyl)-amino]-methyl}-4′-trifluoromethyl-biphenyl-3-yl)-pentanoic acid] | 250 |
| CC(C)CC(C(=O)O)c1cc(-c2ccc(C(F)(F)F)cc2)cc(N(C)c2cc(F)cc(F)c2)c1 (centres unmarked) [Example 3, 2-{5-[(3,5-Difluoro-phenyl)-methyl-amino]-4′-trifluoromethyl-biphenyl-3-yl}-4-methyl-pentanoic acid] | 450 |
| CC(C)CC(C(=O)O)c1cc(-c2ccc(C(F)(F)F)cc2)cc(N(C)c2cc(C(F)(F)F)cc(C(F)(F)F)c2)c1 (centres unmarked) [Example 10, 2-{5-[(3,5-Bis-trifluoromethyl-phenyl)-methyl-amino]-4′-trifluoromethyl-biphenyl-3-yl}-4-methyl-pentanoic acid] | 190 |
| CC(C)CCN(c1cc(-c2ccc(C(F)(F)F)cc2)cc(C(CC(C)C)C(=O)O)c1)c1cccc(C(F)(F)F)c1 (centres unmarked) [Example 17, 4-Methyl-2-{5-[(3-methyl-butyl)-(3-trifluoromethyl-phenyl)-amino]-4′-trifluoromethyl-biphenyl-3-yl}-pentanoic acid] | 260 |
| CC(C)CCN(c1ccc(Cl)cc1)c1cc(-c2ccc(C(F)(F)F)cc2)cc(C(CC(C)C)C(=O)O)c1 (centres unmarked) [Example 18, 2-{5-[(4-Chloro-phenyl)-(3-methyl-butyl)-amino]-4′-trifluoromethyl-biphenyl-3-yl}-4-methyl-pentanoic acid] | 150 |

Same assay, conditions: concentration not given; SKNBE2 cells carrying APP 695 wild type

| % printed in the EC50 column, no concentration given [%] | Structure (SMILES) |
| --- | --- |
| 8 | CC(C)CC(C(=O)O)c1cc(-c2ccc(C(F)(F)F)cc2)cc(N(C)c2ccc(C(C)C)cc2)c1 (centres unmarked) [Example 7, 2-{5-[(4-Isopropyl-phenyl)-methyl-amino]-4′-trifluoromethyl-biphenyl-3-yl}-4-methyl-pentanoic acid] |
| −0 | CC(C)CC(C(=O)O)c1cc(-c2ccc(C(F)(F)F)cc2)cc(N(C)c2ccc(C#N)cc2)c1 (centres unmarked) [Example 8, 2-{5-[(4-Cyano-phenyl)-methyl-amino]-4′-trifluoromethyl-biphenyl-3-yl}-4-methyl-pentanoic acid] |
